Experiments:
[1] = tested on: Ten CoV 3CL^pro's (FIPV-, PEDV-, NL63-, HKU1-, OC43-, SARS-, HKU4-, HKU5-, HKU9-, IBV-3CL^pro); assay type: biochemical, coronaviruses (α-, β-, γ-CoV)
SARS-3CL^pro = SARS-3CL^pro (Severe acute respiratory syndrome coronavirus (SARS-CoV), UniProt P0C6X7); assay type: biochemical
HKU1-3CL^pro = HKU1-3CL^pro (Human coronavirus HKU1 (isolate N1) (HCoV-HKU1), UniProt P0C6X2); test: biochemical
HKU4-3CL^pro = HKU4-3CL^pro (Bat coronavirus HKU4 (BtCoV) (BtCoV/HKU4/2004), UniProt P0C6W3); assay type: biochemical
HKU4-3CL^pro, sequence (P0C6W3 3292-3597 limits assumed): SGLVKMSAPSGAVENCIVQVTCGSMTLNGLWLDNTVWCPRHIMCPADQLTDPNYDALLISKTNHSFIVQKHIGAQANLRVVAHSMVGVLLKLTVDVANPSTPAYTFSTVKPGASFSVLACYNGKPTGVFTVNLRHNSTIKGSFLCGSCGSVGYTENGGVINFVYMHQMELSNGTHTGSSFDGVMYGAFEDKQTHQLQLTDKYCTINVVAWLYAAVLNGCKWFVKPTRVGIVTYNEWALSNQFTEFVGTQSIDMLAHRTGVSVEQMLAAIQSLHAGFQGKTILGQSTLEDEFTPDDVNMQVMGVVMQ

HKU5-3CL^pro = HKU5-3CL^pro (Bat coronavirus HKU5 (BtCoV) (BtCoV/HKU5/2004), UniProt P0C6W4); assay type: biochemical
HKU5-3CL^pro, sequence (P0C6W4 3339-3644 limits assumed): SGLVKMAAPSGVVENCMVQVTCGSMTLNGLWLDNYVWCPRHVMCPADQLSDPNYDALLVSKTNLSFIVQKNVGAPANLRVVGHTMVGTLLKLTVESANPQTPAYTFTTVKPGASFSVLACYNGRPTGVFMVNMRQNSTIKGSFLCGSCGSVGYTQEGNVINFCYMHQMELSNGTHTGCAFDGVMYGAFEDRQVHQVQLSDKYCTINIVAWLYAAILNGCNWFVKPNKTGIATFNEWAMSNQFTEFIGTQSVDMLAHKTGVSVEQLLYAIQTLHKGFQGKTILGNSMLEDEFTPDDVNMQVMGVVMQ

HKU1-3CL^pro, sequence (P0C6X2 3335-3637 limits assumed): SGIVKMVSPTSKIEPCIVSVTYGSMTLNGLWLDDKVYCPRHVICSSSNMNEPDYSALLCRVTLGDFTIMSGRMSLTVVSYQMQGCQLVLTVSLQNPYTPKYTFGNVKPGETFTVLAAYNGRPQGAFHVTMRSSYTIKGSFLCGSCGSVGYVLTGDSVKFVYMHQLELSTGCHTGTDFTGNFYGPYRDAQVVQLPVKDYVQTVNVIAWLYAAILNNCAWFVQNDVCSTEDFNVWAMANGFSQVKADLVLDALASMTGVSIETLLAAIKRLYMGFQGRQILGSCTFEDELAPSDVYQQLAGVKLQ

| Compound | Gini Coefficient [1] | inhibition of any 3CL^pro [1] [%] | also measured |
| --- | --- | --- | --- |
| CC(C)(C)NC(=O)C(c1ccsc1)N(C(=O)Cc1coc2ccccc12)c1ccc(NC(=O)C2CC2)cc1 (stereo not shown) [Compound 25, N-(4-(2-(benzofuran-3-yl)-N-(2-(tert-butylamino)-2-oxo-1-(thiophen-3-yl)ethyl)acetamido)phenyl)cyclopropanecarboxamide] | 0.39 | ≤ 50 |  |
| Cc1cccc2c(CC(=O)N(c3ccc(NC(=O)C(C)C)cc3)C(C(=O)NCc3ccccc3)c3cccc(F)c3)c[nH]c12 (stereo not shown) [Compound 57, N-(4-(N-(2-(benzylamino)-1-(3-fluorophenyl)-2-oxoethyl)-2-(7-methyl-1H-indol-3-yl)acetamido)phenyl)isobutyramide] | 0.38 | ≤ 50 |  |
| CC(C)C(=O)Nc1ccc(N(C(=O)Cn2nnc3ccccc32)C(C(=O)NCc2ccccc2)c2ccc(Cl)c(F)c2)cc1 (stereo not shown) [Compound 55, N-(4-(2-(1H-benzo[d][1,2,3]triazol-1-yl)-N-(2-(benzylamino)-1-(4-chloro-3-fluorophenyl)-2-oxoethyl)acetamido)phenyl)isobutyramide] | 0.50 |  | Score (performance metric score) [1]: 9.8; IC50 (SARS-3CL^pro): 0.8 ± 0.1 µM |
| CC(C)C(=O)Nc1ccc(N(C(=O)Cc2coc3ccccc23)C(C(=O)NCc2ccccc2)c2cccc(F)c2)cc1 (stereo not shown) [Compound 20, N-(4-(2-(benzofuran-3-yl)-N-(2-(benzylamino)-1-(3-fluorophenyl)-2-oxoethyl)acetamido)phenyl)isobutyramide] | 0.39 | ≤ 50 |  |
| CC(C)(C)NC(=O)C(c1ccsc1)N(C(=O)Cc1c[nH]c2ccccc12)c1ccc(NC(=O)C2CC2)cc1 (stereo not shown) [Compound 26, N-(4-(N-(2-(tert-butylamino)-2-oxo-1-(thiophen-3-yl)ethyl)-2-(1H-indol-3-yl)acetamido)phenyl)cyclopropanecarboxamide] | 0.46 | ≤ 50 |  |
| CC(C)(C)NC(=O)C(c1ccsc1)N(C(=O)C1CCN(C(=O)OC(C)(C)C)CC1)c1ccc(NC(=O)C2CC2)cc1 (stereo not shown) [Compound 60, tert-butyl 4-((2-(tert-butylamino)-2-oxo-1-(thiophen-3-yl)ethyl)(4-(cyclopropanecarboxamido)phenyl)carbamoyl)piperidine-1-carboxylate] | 0.60 | ≤ 50 |  |
| COc1cc(N(C(=O)c2c[nH]cn2)C(C(=O)NC(C)(C)C)c2cccnc2)cc(OC)c1OC (stereo not shown) [Compound 69, N-(2-(tert-butylamino)-2-oxo-1-(pyridin-3-yl)ethyl)-N-(3,4,5-trimethoxyphenyl)-1H-imidazole-4-carboxamide] | 0.45 |  |  |
| CC(C)C(=O)Nc1ccc(N(C(=O)Cn2nnc3ccccc32)C(C(=O)NCc2ccccc2)c2cccc(Cl)c2)cc1 (stereo not shown) [Compound 11, N-(4-(2-(1H-benzo[d][1,2,3]triazol-1-yl)-N-(2-(benzylamino)-1-(3-chlorophenyl)-2-oxoethyl)acetamido)phenyl)isobutyramide] |  | ≤ 50 |  |
| CC(C)C(=O)Nc1ccc(N(C(=O)Cn2nnc3ccccc32)C(C(=O)NCc2ccccc2)c2ccc(OCCCN(C)C)cc2)cc1 (stereo not shown) [Compound 54, N-(4-(2-(1H-benzo[d][1,2,3]triazol-1-yl)-N-(2-(benzylamino)-1-(4-(3-(dimethylamino)propoxy)phenyl)-2-oxoethyl)acetamido)phenyl)isobutyramide] | 0.59 |  | Score (performance metric score) [1]: 19.8; IC50 (HKU1-3CL^pro): 20 ± 2.9 µM; IC50 (SARS-3CL^pro): 27.3 ± 4.6 µM |
| CC(C)C(=O)Nc1ccc(N(C(=O)Cn2nnc3ccccc32)C(C(=O)NCc2ccccc2)c2ccncc2)cc1 (stereo not shown) [Compound 16, N-(4-(2-(1H-benzo[d][1,2,3]triazol-1-yl)-N-(2-(benzylamino)-2-oxo-1-(pyridin-4-yl)ethyl)acetamido)phenyl)isobutyramide] | 0.52 | ≤ 50 |  |
| Cc1cc(N(C(=O)c2c[nH]cn2)C(C(=O)NC(C)(C)C)c2cccnc2)ccc1Cl (stereo not shown) [Compound 70, N-(2-(tert-butylamino)-2-oxo-1-(pyridin-3-yl)ethyl)-N-(4-chloro-3-methylphenyl)-1H-imidazole-4-carboxamide] | 0.33 |  |  |
| CC(C)C(=O)Nc1ccc(N(C(=O)Cn2nnc3ccccc32)C(C(=O)NCc2ccccc2)c2ccc(N(C)C)cc2)cc1 (stereo not shown) [Compound 52, N-(4-(2-(1H-benzo[d][1,2,3]triazol-1-yl)-N-(2-(benzylamino)-1-(4-(dimethylamino)phenyl)-2-oxoethyl)acetamido)phenyl)isobutyramide] | 0.42 | ≤ 50 |  |
| CC(C)(C)NC(=O)C(c1cccnc1)N(C(=O)c1c[nH]cn1)c1cccc(C(C)(C)C)c1 (stereo not shown) [Compound 71] | 0.30 |  |  |
| Cc1nccn1CCC(=O)N(c1ccc(NC(=O)C(C)C)cc1)C(C(=O)NCc1ccccc1)c1cccc(F)c1 (stereo not shown) [Compound 59, N-(2-(benzylamino)-1-(3-fluorophenyl)-2-oxoethyl)-N-(4-isobutyramidophenyl)-3-(2-methyl-1H-imidazol-1-yl)propanamide] | 0.44 |  |  |
| CC(C)(C)NC(=O)C(c1ccsc1)N(C(=O)CCc1nc2ccccc2[nH]1)c1ccc(NC(=O)C2CC2)cc1 (stereo not shown) [Compound 62, N-(4-(3-(1H-benzo[d]imidazol-2-yl)-N-(2-(tert-butylamino)-2-oxo-1-(thiophen-3-yl)ethyl)propanamido)phenyl)cyclopropanecarboxamide] | 0.46 | ≤ 50 |  |
| CC(C)C(=O)Nc1ccc(N(C(=O)C2CCN(C(=O)OC(C)(C)C)CC2)C(C(=O)NCc2ccccc2)c2cccc(F)c2)cc1 (stereo not shown) [Compound 56, tert-butyl 4-((2-(benzylamino)-1-(3-fluorophenyl)-2-oxoethyl)(4-isobutyramidophenyl)carbamoyl) piperidine-1-carboxylate] | 0.34 |  |  |
| Cc1nccn1CCC(=O)N(c1ccc(NC(=O)C2CC2)cc1)C(C(=O)NC(C)(C)C)c1ccsc1 (stereo not shown) [Compound 63, N-(4-(N-(2-(tert-butylamino)-2-oxo-1-(thiophen-3-yl)ethyl)-3-(2-methyl-1H-imidazol-1-yl)propanamido)phenyl)cyclopropanecarboxamide] | 0.44 | ≤ 50 |  |
| CC(C)C(=O)Nc1ccc(N(C(=O)Cn2nnc3ccccc32)C(C(=O)NCc2ccccc2)c2cccnc2)cc1 (stereo not shown) [Compound 15, N-(4-(2-(1H-benzo[d][1,2,3]triazol-1-yl)-N-(2-(benzylamino)-2-oxo-1-(pyridin-3-yl)ethyl)acetamido)phenyl)isobutyramide] | 0.48 |  | IC50 (HKU4-3CL^pro): 4 ± 0.4 µM; IC50 (HKU5-3CL^pro): 9.6 ± 1.2 µM; Score (performance metric score) [1]: 9.7; IC50 (SARS-3CL^pro): 10.9 ± 1.9 µM |
| Cc1cccc2c(CC(=O)N(c3ccc(NC(=O)C4CC4)cc3)C(C(=O)NC(C)(C)C)c3ccsc3)c[nH]c12 (stereo not shown) [Compound 61, N-(4-(N-(2-(tert-butylamino)-2-oxo-1-(thiophen-3-yl)ethyl)-2-(7-methyl-1H-indol-3-yl)acetamido)phenyl)cyclopropanecarboxamide] | 0.43 | ≤ 50 |  |
| CC(C)C(=O)Nc1ccc(N(C(=O)Cn2nnc3ccccc32)C(C(=O)NCc2ccccc2)c2ccc(Cl)cc2)cc1 (stereo not shown) [Compound 12, N-(4-(2-(1H-benzo[d][1,2,3]triazol-1-yl)-N-(2-(benzylamino)-1-(4-chlorophenyl)-2-oxoethyl)acetamido)phenyl)isobutyramide] | 0.37 |  |  |
| CC(C)(C)NC(=O)C(c1ccsc1)N(C(=O)Cc1csc2ccccc12)c1ccc(NC(=O)C2CC2)cc1 (stereo not shown) [Compound 24, N-(4-(2-(benzo[b]thiophen-3-yl)-N-(2-(tert-butylamino)-2-oxo-1-(thiophen-3-yl)ethyl)acetamido)phenyl)cyclopropanecarboxamide] | 0.40 | ≤ 50 |  |
| CC(C)C(=O)Nc1ccc(N(C(=O)CCc2nc3ccccc3[nH]2)C(C(=O)NCc2ccccc2)c2cccc(F)c2)cc1 (stereo not shown) [Compound 58, 3-(1H-benzo[d]imidazol-2-yl)-N-(2-(benzylamino)-1-(3-fluorophenyl)-2-oxoethyl)-N-(4-isobutyramidophenyl)propanamide] | 0.40 |  |  |
| COc1ccc(C(C(=O)NCc2ccccc2)N(C(=O)Cn2nnc3ccccc32)c2ccc(NC(=O)C(C)C)cc2)cc1 (stereo not shown) [Compound 13, N-(4-(2-(1H-benzo[d][1,2,3]triazol-1-yl)-N-(2-(benzylamino)-1-(4-methoxyphenyl)-2-oxoethyl)acetamido)phenyl)isobutyramide] | 0.43 |  | IC50 (HKU5-3CL^pro): 1.3 ± 0.2 µM; Score (performance metric score) [1]: 6.4; IC50 (HKU1-3CL^pro): 2.5 ± 0.4 µM |
